Entries after “also recorded” stand apart in the source; their conditions may differ. Where two headings read alike, the source gives them in different places.
Key:
Type in all cases: cell-based
CB1 Cannabinoid Receptor = target: T1, CB1 Cannabinoid Receptor (Homo sapiens, UniProt P21554); assay: Mammalian cell calcium assay (Gα15, Fluo-8 fluorescence); details: high concentrations (10 μM), four-point dose response
T1 construct: Since the human CB1R strain uses the full-length receptor; host or cells: Ready-to-Assay CB1 Cannabinoid Receptor Frozen Cells (commercial human cell line with promiscuous Gα15, division-arrested)
T1 sequence (P21554 whole entry): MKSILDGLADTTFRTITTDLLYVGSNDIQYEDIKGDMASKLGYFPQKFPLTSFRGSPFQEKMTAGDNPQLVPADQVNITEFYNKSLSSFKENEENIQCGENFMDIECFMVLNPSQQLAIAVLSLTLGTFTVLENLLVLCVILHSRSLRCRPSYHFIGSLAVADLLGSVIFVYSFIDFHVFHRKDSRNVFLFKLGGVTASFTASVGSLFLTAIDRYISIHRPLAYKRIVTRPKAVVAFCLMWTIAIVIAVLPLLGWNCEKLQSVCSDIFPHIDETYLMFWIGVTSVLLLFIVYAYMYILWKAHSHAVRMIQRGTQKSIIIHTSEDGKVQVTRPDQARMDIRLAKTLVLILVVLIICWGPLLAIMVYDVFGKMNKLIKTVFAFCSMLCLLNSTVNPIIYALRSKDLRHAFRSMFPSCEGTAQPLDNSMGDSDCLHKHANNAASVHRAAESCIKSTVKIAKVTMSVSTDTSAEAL
Experimental: To validate the findings and further evaluate the performance of our yeast screening assay, we retested a subset of our library in a conventional mammalian cell assay. We acquired human cell lines depleted of native GPCRs and containing the promiscuous Gα15, wherein GPCR activation triggers intracellular calcium release, which is measured by Fluo-8 fluorescence (see Section 4). We selected eight compounds for side-by-side testing between the yeast and human host for CB1R (Figure 4a–d). To maximize the number of compounds tested per plate, we performed a limited four-point dose response on the mammalian cells (Figure 4a,b).
Mammalian cell assays were performed in Eurofins Ready-to-Assay™ CB1 Cannabinoid Receptor Frozen Cells. Cells were division-arrested, which limited the number of samples that could be measured, so a limited 4-point dose response was performed. Cells were seeded in 96-well plates and grown for 24 h. Cells were washed with Hank’s Balanced Salt Solution (HBSS) with 20 mM HEPES and 2.5 mM Probenecid at pH 7.4. […] Cells with dye were incubated at 37 °C for 1 h before fluorescent measurement on a Flexstation 3-plate reader (Molecular Devices, San Jose, CA, USA). Baseline fluorescence was measured for 10 s before 50 μL ligands were injected into 100 μL cells. Samples were measured for 180 s and recorded values were measured as ΔF/F0 (Fmax − Fmin/Fmin).

syn-pre-pro-Δ89-CB1R [1] = target: T2, syn-pre-pro-Δ89-CB1R (Homo sapiens, UniProt P21554); assay: cell-based; details: for EC50 values / activity in words: PINACA agonist series
T2 construct: expressed in transfected cells; host or cells: Saccharomyces cerevisiae BY4741-derived ZsGreen reporter strain (Gpa1-Gαi3 chimera; also sterol-modified strains ST01–ST15)
T2 sequence (P21554 90-472 limits assumed, stated change not applied): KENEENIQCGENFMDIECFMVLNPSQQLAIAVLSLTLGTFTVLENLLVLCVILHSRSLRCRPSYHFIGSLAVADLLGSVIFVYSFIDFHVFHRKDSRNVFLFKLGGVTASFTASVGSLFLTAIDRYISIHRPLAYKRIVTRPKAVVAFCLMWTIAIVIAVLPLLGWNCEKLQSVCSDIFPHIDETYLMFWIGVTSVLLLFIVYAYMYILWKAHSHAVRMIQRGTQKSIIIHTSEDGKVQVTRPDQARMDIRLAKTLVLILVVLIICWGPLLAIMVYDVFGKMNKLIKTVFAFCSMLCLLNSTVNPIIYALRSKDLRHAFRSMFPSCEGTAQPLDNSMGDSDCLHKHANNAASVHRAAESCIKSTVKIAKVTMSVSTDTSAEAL

Syn-pre-pro CB1R = target: T3, Syn-pre-pro CB1R (Homo sapiens, UniProt P21554); assay: Yeast ZsGreen reporter strain with full-length syn-pre-pro CB1R
T3 construct: expressed in transfected cells; host or cells: Saccharomyces cerevisiae BY4741-derived ZsGreen reporter strain (Gpa1-Gαi3 chimera)
T3 sequence (P21554 whole entry): as the sequence (P21554 whole entry) above

WT CB1R = target: T4, WT CB1R (Homo sapiens, UniProt P21554)
T4 construct: expressed in transfected cells; host or cells: Saccharomyces cerevisiae BY4741-derived ZsGreen reporter strain (Gpa1-Gαi3 chimera)
T4 sequence (P21554 whole entry): as above

Δ89-CB1R = target: T5, Δ89-CB1R (Homo sapiens, UniProt P21554); assay: Yeast ZsGreen reporter strain with N-terminally truncated CB1R
T5 construct: expressed in transfected cells; host or cells: Saccharomyces cerevisiae BY4741-derived ZsGreen reporter strain (Gpa1-Gαi3 chimera)
T5 sequence (P21554 with tags, fused parts or gaps): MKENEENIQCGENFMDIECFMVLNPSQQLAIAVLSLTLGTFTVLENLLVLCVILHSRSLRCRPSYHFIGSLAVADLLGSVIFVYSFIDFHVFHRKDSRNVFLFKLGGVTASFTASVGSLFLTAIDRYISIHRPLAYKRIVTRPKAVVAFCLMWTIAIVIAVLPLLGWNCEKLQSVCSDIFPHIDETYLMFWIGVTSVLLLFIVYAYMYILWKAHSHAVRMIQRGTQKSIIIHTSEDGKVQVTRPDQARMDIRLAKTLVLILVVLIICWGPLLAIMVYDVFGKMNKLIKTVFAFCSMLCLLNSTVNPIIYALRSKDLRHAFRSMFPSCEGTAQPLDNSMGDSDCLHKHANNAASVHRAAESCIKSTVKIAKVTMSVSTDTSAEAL

syn-pre-pro-Δ89-CB1R [2] = target: T2, syn-pre-pro-Δ89-CB1R; assay: syn-pre-pro-Δ89-CB1R dose response in sterol-modified yeast strains ST01–ST15
Description: Ergosterol and cholesterol share a common zymosterol precursor that can be converted to cholesterol through a four-enzyme pathway that produces seven downstream metabolites (Figure 2b). We recently replaced the native yeast sterol pathway with cholesterol biosynthesis enzymes to create a small library of yeast strains that produce varying levels of these seven metabolites in the GpaI-Gai3 chimeric ZsGreen human GPCR reporter strain [30]. The syn-pre-pro-Δ89-CB1R expression construct was transformed into fifteen strains (ST01–ST15, Figure 2c, Supplementary Table S1) selected to cover the metabolic and structural sterol space. We then performed dose response experiments with ACEA and measured the ZsGreen via fluorescent cytometry.
Yeast colonies were picked and grown overnight to saturation in pH 5.8 SD-His media in a 2.2 mL deep well plate (Axygen, Corning, NY, USA), grown in a plate-shaking incubator (30 °C, 1000 rpm, 3 mm orbital). In the morning, cultures were diluted to 1:10 or 1:25 in SD-His media buffered to pH 7.1 with 100 mM MOPSO (unless otherwise specified). Ligands were added to the culture and incubated with shaking for 8 h. Cells were then washed three times with ice-cold Tris buffer (pH 7) and diluted to 1:20 for cytometry. All cytometry was performed on a Sony SA3800 spectral analyzer. Each sample was tested for 10,000 events and read at a rate of 1000 events per second. All assays as reported here were filtered only for singlet populations.

[3] = FUBINACA and PINACA compounds, 8 h, n = 3 (Figure 3), read-out: EC50, dose response
[4] = Supplementary Table S2, read-out: EC50 (M) Yeast CB1R
[5] = read-out: EC50, ACEA dose response
[6] = compound at 10 nM, screen, n = 1

CC[C@H](C)[C@H](NC(=O)c1nn(CCCCCF)c2ccccc12)C(N)=O (single isomer, unassigned) [5-fluoro ADB-PINACA isomer 2]
induction of calcium dye fluorescence (CB1 Cannabinoid Receptor): failed to induce significant levels of fluorescence
EC50 values / activity in words (syn-pre-pro-Δ89-CB1R [1]): drastic loss of activity
activity in the yeast assay (syn-pre-pro-Δ89-CB1R [1]; side-by-side with mammalian cells, high concentrations (10 μM), listed as 5-fluoro 2-ADB-PINACA isomer 2): lowest activity; also recorded: partial agonism

CCCC(NC(=O)c1nn(Cc2ccc(F)cc2)c2ccccc12)C(N)=O (single isomer, unassigned) [AB-FUBINACA isomer 1]
maximal signaling in dose response (syn-pre-pro-Δ89-CB1R [1]): high maximal signaling
EC50 (syn-pre-pro-Δ89-CB1R [1]; [3]): 1e-11 M
EC50 (syn-pre-pro-Δ89-CB1R [1]; [4]): 4.74e-10 M

CCC(C)(NC(=O)c1nn(Cc2ccc(F)cc2)c2ccccc12)C(N)=O (single isomer, unassigned) [AB-FUBINACA isomer 2]
maximal signaling in dose response (syn-pre-pro-Δ89-CB1R [1]): lower response
EC50 (syn-pre-pro-Δ89-CB1R [1]; [3]): 2.3e-10 M

CCC(C(N)=O)N(C)C(=O)c1nn(Cc2ccc(F)cc2)c2ccccc12 (single isomer, unassigned) [AB-FUBINACA isomer 5]
maximal signaling in dose response (syn-pre-pro-Δ89-CB1R [1]): lower response
EC50 (syn-pre-pro-Δ89-CB1R [1]; [3]): 1.59e-08 M

O=C(Oc1cccc2cnccc12)c1cn(CCCCCF)c2ccccc12 [5-fluoro PB-22 5-hydroxyisoquinoline isomer]
EC50 (syn-pre-pro-Δ89-CB1R [1]; [4]): 9.09e-12 M

CC(C)=CCCC(C)CCO (stereo not drawn) [(+)-β-Citronellol]
activity in terpene library screen (syn-pre-pro-Δ89-CB1R [1]): found to activate CB1R

CC(C)[C@H](NC(=O)c1cn(Cc2ccccc2)c2ccccc12)C(N)=O [AB-BICA]
EC50 (syn-pre-pro-Δ89-CB1R [1]; [4]): 5.66e-09 M

CC(C)C(NC(=O)c1nn(Cc2ccc(F)cc2)c2ccccc12)C(N)=O (stereo not drawn) [AB-FUBINACA]
maximal activity (syn-pre-pro-Δ89-CB1R [1]): 79–84%
maximal signaling in dose response (syn-pre-pro-Δ89-CB1R [1]): high maximal signaling
EC50 (syn-pre-pro-Δ89-CB1R [1]; EC50 (M) Yeast CB1R): 1.13e-11 M
EC50 (syn-pre-pro-Δ89-CB1R [1]; EC50, dose response): 6.6e-10 M

CCCCCn1nc(C(=O)NC(C(N)=O)C(C)C)c2ccccc21 (stereo not drawn) [AB-PINACA]
maximal activity (syn-pre-pro-Δ89-CB1R [1]): 79–84%
EC50 (syn-pre-pro-Δ89-CB1R [1]; [3]): 1.21e-09 M
EC50 values / activity in words (syn-pre-pro-Δ89-CB1R [1]): low nanomolar range

CCCCC/C=C\C/C=C\C/C=C\C/C=C\CCCC(=O)NCCCl [ACEA, Arachidonyl-2′-chloroethylamide]
EC50 (Syn-pre-pro CB1R; Syn-pre-pro CB1R in yeast, 8 h, n = 3, read-out: EC50, ACEA dose response): 40 nM
fold activation (Syn-pre-pro CB1R; syn-pre-pro modification alone): approximately 7 fold
fold signaling (activation) (WT CB1R): < 4 fold
EC50 (WT CB1R; [5]): 1300 nM
fold activation (Δ89-CB1R; truncated receptor): 15 fold
EC50 (Δ89-CB1R; Δ89-CB1R in yeast, 8 h, n = 3, read-out: EC50, ACEA dose response): 5050 nM
Fold Change CB1R (syn-pre-pro-Δ89-CB1R [2]; Strain ST01): 73.2 fold
EC50 (syn-pre-pro-Δ89-CB1R [2]; Strain ST01, read-out: EC50): 73 nM
EC50 (syn-pre-pro-Δ89-CB1R [2]; Strain ST02, read-out: EC50): 305 nM
EC50 (syn-pre-pro-Δ89-CB1R [2]; Strain ST03, read-out: EC50): 144 nM
EC50 (syn-pre-pro-Δ89-CB1R [2]; Strain ST04, read-out: EC50): 96 nM
EC50 (syn-pre-pro-Δ89-CB1R [2]; Strain ST05, read-out: EC50): 107 nM
EC50 (syn-pre-pro-Δ89-CB1R [2]; Strain ST06, read-out: EC50): 74 nM
EC50 (syn-pre-pro-Δ89-CB1R [2]; Strain ST08, read-out: EC50): 102 nM
EC50 (syn-pre-pro-Δ89-CB1R [2]; Strain ST09, read-out: EC50): 134 nM
EC50 (syn-pre-pro-Δ89-CB1R [2]; Strain ST10, read-out: EC50): 253 nM
EC50 (syn-pre-pro-Δ89-CB1R [2]; Strain ST11, read-out: EC50): 160 nM
EC50 (syn-pre-pro-Δ89-CB1R [2]; Strain ST12, read-out: EC50): 140 nM
Fold Change CB1R (syn-pre-pro-Δ89-CB1R [2]; Strain ST13): 34.3 fold
EC50 (syn-pre-pro-Δ89-CB1R [2]; Strain ST13, read-out: EC50): 99 nM
EC50 (syn-pre-pro-Δ89-CB1R [2]; Strain ST14, read-out: EC50): 640 nM
EC50 (syn-pre-pro-Δ89-CB1R [2]; Strain ST15, read-out: EC50): 604 nM
EC50 (syn-pre-pro-Δ89-CB1R [2]; cholesterol intermediate strain ST07, text value, read-out: EC50): 65 nM
EC50 (syn-pre-pro-Δ89-CB1R [2]; mean over ST01–ST15, read-out: average EC50 value across the intermediate strains): 199 nM
Fold Change CB1R (syn-pre-pro-Δ89-CB1R [1]): 93.6 ± 15.6 fold
drop in sensitivity compared to the full-length syn-pre-pro construct (syn-pre-pro-Δ89-CB1R [1]): 3.8 fold
fold activation (syn-pre-pro-Δ89-CB1R [1]): 28 fold
EC50 (syn-pre-pro-Δ89-CB1R [1]; [5]): 1.5e-07 M

CCCCCn1nc(C(=O)NC(C(N)=O)C(C)(C)C)c2ccccc21 (stereo not drawn) [ADB-PINACA]
maximal activity (syn-pre-pro-Δ89-CB1R [1]): 79–84%
EC50 (syn-pre-pro-Δ89-CB1R [1]; [3]): 9e-11 M
EC50 values / activity in words (syn-pre-pro-Δ89-CB1R [1]): low nanomolar range
EC50 (syn-pre-pro-Δ89-CB1R [1]; [4]): 8.34e-12 M

CCCCCCC(C)(C)c1cc(O)c2c(c1)OC(C)(C)[C@H]1CC=C(CO)C[C@H]21 [HU-211]
relative fluorescence of the ACEA positive control (syn-pre-pro-Δ89-CB1R [1]): less than 25%

Cc1c(C(=O)c2ccccc2)c(N)c(-c2ccccc2)n1Cc1ccc(Cl)cc1 [URB447]
relative fluorescence of the ACEA positive control (syn-pre-pro-Δ89-CB1R [1]; [6]): less than 25%

COc1ccc(C(=O)c2c(C)n(CCN3CCOCC3)c3cc(Br)ccc23)cc1 [WIN54,461]
relative fluorescence of the ACEA positive control (syn-pre-pro-Δ89-CB1R [1]; [6]): less than 25%

C=C1CCC[C@]2(C)CC[C@@H](C(C)(C)O)C[C@@H]12 [β-Eudesmol]
activity in terpene library screen (syn-pre-pro-Δ89-CB1R [1]): found to activate CB1R
signaling in terpene dose response (syn-pre-pro-Δ89-CB1R [1]; dose response, n = 3): showed signaling at high (10 µM) concentrations

— article PMC11173002, “A Humanized CB1R Yeast Biosensor Enables Facile Screening of Cannabinoid Compounds” (International Journal of Molecular Sciences, 2024)
